Assay results as given in ChEMBL document CHEMBL3046513, “Synthesis, characterization, and biological evaluation of some N-aryl hydrazones and their 2,3-disubstituted-4-thiazolidinone derivatives” (Med Chem Res, 2013).
Values after ≈ are worked out from the molar mass of the structure shown. Active and inactive are the calls of the source. The rule behind the calls is not given here.

Experiments:
[1] = test system: Staphylococcus aureus; experiment: Antibacterial activity against Staphylococcus aureus ATCC 25923 assessed as growth inhibition by serial plate dilution method; format: functional
[2] = test system: Candida albicans; experiment: Antifungal activity against Candida albicans assessed as growth inhibition by serial plate dilution method; format: functional
[3] = test system: Escherichia coli; experiment: Antibacterial activity against Escherichia coli ATCC 25922 assessed as growth inhibition by serial plate dilution method; format: functional
[4] = test system: Pseudomonas aeruginosa; experiment: Antibacterial activity against Pseudomonas aeruginosa ATCC 27853 assessed as growth inhibition by serial plate dilution method; format: functional
[5] = test system: Bacillus cereus; experiment: Antibacterial activity against Bacillus cereus assessed as growth inhibition by serial plate dilution method; format: functional
[6] = test system: Candida albicans; experiment: Ratio of fluconazole MIC to compound MIC for Candida albicans; format: functional
[7] = test system: Mus musculus; experiment: Acute toxicity in Mus musculus Swiss albino (mouse) assessed as behavioral changes at 500 to 2500 mg/kg, po after 4 to 24 hr; format: organism-based; parameters: route oral; details: in vivo
[8] = test system: Mus musculus; experiment: Acute toxicity in Mus musculus Swiss albino (mouse) assessed as mortality at 500 to 2500 mg/kg, po after 4 to 24 hr; format: organism-based; parameters: route oral; details: in vivo
[9] = test system: Mus musculus; experiment: Analgesic activity in Mus musculus […] albino (mouse) assessed as time taken to tail withdrawl at 100 mg/kg, po administered through intragastric tube after 60 min by tail flick test (reference value: 1.363 +/- 0.1297 secs); format: functional
[10] = test system: Rattus norvegicus; experiment: Anti-inflammatory activity in Rattus norvegicus (rat) assessed as decrease in carrageenan-induced paw edema at 100 mg/kg, po administered 30 min prior to carrageenan challenge measured after 180 min (reference value: 2.275 +/- 0.1181 mm); format: functional
[11] = test system: Rattus norvegicus; experiment: Anti-inflammatory activity in Rattus norvegicus (rat) assessed as decrease in carrageenan-induced paw edema at 100 mg/kg, po administered 30 min prior to carrageenan challenge measured after 60 min (reference value: 2.175 +/- 0.1797 mm); format: functional
[12] = test system: Rattus norvegicus; experiment: Anti-inflammatory activity in Rattus norvegicus (rat) assessed as decrease in carrageenan-induced paw edema at 100 mg/kg, po administered 30 min prior to carrageenan challenge measured after 120 min (reference value: 2.375 +/- 0.1436 mm); format: functional
[13] = test system: Radical scavenging activity; experiment: Antioxidant activity assessed as inhibition of DPPH radical generation at 200 to 800 ug/mL after 20 min by spectrophotometric analysis; format: functional
[14] = test system: Mus musculus; experiment: Analgesic activity in Mus musculus […] albino (mouse) assessed as time taken to tail withdrawl at 100 mg/kg, po administered through intragastric tube after 180 min by tail flick test (reference value: 1.363 +/- 0.1297 secs); format: functional
[15] = test system: Mus musculus; experiment: Analgesic activity in Mus musculus […] albino (mouse) assessed as time taken to tail withdrawl at 100 mg/kg, po administered through intragastric tube after 120 min by tail flick test (reference value: 1.363 +/- 0.1297 secs); format: functional
[16] = test system: Radical scavenging activity; experiment: Antioxidant activity assessed as inhibition of DPPH radical generation at 400 ug/mL after 20 min by spectrophotometric analysis relative to control; format: functional
[17] = test system: Radical scavenging activity; experiment: Antioxidant activity assessed as inhibition of DPPH radical generation at 800 ug/mL after 20 min by spectrophotometric analysis relative to control; format: functional
[18] = test system: Radical scavenging activity; experiment: Antioxidant activity assessed as inhibition of DPPH radical generation at 200 ug/mL after 20 min by spectrophotometric analysis relative to control; format: functional

| Compound | MIC [1] [µg/mL] | MIC [2] [µg/mL] | MIC [3] [µg/mL] | MIC [4] [µg/mL] | MIC [5] [µg/mL] | Ratio [6] | Activity [7] | Activity [8] | Time [9] [s] | Activity [10] [mm] | Activity [11] [mm] | Activity [12] [mm] | inhibition [13] | Time [14] [s] | Time [15] [s] | inhibition [16] [%] | inhibition [17] [%] | inhibition [18] |
| --- | --- | --- | --- | --- | --- | --- | --- | --- | --- | --- | --- | --- | --- | --- | --- | --- | --- | --- |
| COc1ccc(Br)c(C(=O)N/N=C\c2ccccc2)c1 | 12.5 (≈ 37.5 µM) | 1.56 (≈ 4.69 µM) | 12.5 (≈ 37.5 µM) | 12.5 (≈ 37.5 µM) | 12.5 (≈ 37.5 µM) | 5 | Non-toxic | Non-toxic |  |  |  |  |  |  |  |  |  |  |
| COc1ccc(Br)c(C(=O)NN2C(=O)CSC2c2ccc(C)cc2)c1 (configuration not stated) | 6.25 (≈ 14.8 µM) | 6.25 (≈ 14.8 µM) | 12.5 (≈ 29.7 µM) | 12.5 (≈ 29.7 µM) | 12.5 (≈ 29.7 µM) |  |  |  | 2.038 | 1.95 | 1.525 | 1.9 | inactive | 2.225 | 2.088 |  |  |  |
| COc1ccc(Br)c(C(=O)NN2C(=O)CSC2c2ccc(O)c(OC)c2)c1 (configuration not stated) | 6.25 (≈ 13.8 µM) | 12.5 (≈ 27.6 µM) | 12.5 (≈ 27.6 µM) | 6.25 (≈ 13.8 µM) | 6.25 (≈ 13.8 µM) |  |  |  | 3.468 | 1.78 | 1.528 | 1.77 | inactive | 2.841 | 3.334 |  |  |  |
| COc1ccc(Br)c(C(=O)NN2C(=O)CSC2c2ccc([N+](=O)[O-])cc2)c1 (configuration not stated) | 6.25 (≈ 13.8 µM) | 6.25 (≈ 13.8 µM) | 6.25 (≈ 13.8 µM) | 12.5 (≈ 27.6 µM) | 6.25 (≈ 13.8 µM) |  |  |  | 3.375 | 1.975 | 1.45 | 1.8 |  | 2.663 | 3.263 | 5.81 | 13 | inactive |
| COc1ccc(Br)c(C(=O)NN2C(=O)CSC2c2ccc(-c3ccccc3)cc2)c1 (configuration not stated) | 12.5 (≈ 25.9 µM) | 6.25 (≈ 12.9 µM) | 6.25 (≈ 12.9 µM) | 6.25 (≈ 12.9 µM) | 6.25 (≈ 12.9 µM) |  |  |  | 2.988 | 2.075 | 1.45 | 1.875 |  | 3.113 | 3.313 | 39.9 | 62.5 | 15.3% |
| COc1ccc(Br)c(C(=O)NN2C(=O)CSC2c2cccnc2)c1 (configuration not stated) | 6.25 (≈ 15.3 µM) | 3.12 (≈ 7.65 µM) | 6.25 (≈ 15.3 µM) | 6.25 (≈ 15.3 µM) | 6.25 (≈ 15.3 µM) |  |  |  | 3.25 | 1.9 | 1.45 | 1.75 |  | 2.938 | 3.6 | 23.5 | 25.1 | 21.6% |
| COc1ccc(C2SCC(=O)N2NC(=O)c2cc(OC)ccc2Br)cc1 (configuration not stated) | 6.25 (≈ 14.3 µM) | 6.25 (≈ 14.3 µM) | 12.5 (≈ 28.6 µM) | 6.25 (≈ 14.3 µM) | 6.25 (≈ 14.3 µM) |  |  |  | 2.388 | 1.875 | 1.6 | 1.75 |  | 2.513 | 2.575 | 58.2 | 59.5 | 57.5% |
| COc1ccc(Br)c(C(=O)NN2C(=O)CSC2c2ccccc2OC)c1 (configuration not stated) | 6.25 (≈ 14.3 µM) | 6.25 (≈ 14.3 µM) | 12.5 (≈ 28.6 µM) | 6.25 (≈ 14.3 µM) | 6.25 (≈ 14.3 µM) |  |  |  | 2.175 | 2.075 | 1.825 | 1.95 | inactive | 2.238 | 2.075 |  |  |  |
| COc1ccc(Br)c(C(=O)NN2C(=O)CSC2c2ccccc2O)c1 (configuration not stated) | 6.25 (≈ 14.8 µM) | 3.12 (≈ 7.38 µM) | 12.5 (≈ 29.5 µM) | 6.25 (≈ 14.8 µM) | 12.5 (≈ 29.5 µM) |  |  |  | 3.546 | 2.081 | 1.88 | 1.98 | inactive | 2.235 | 3.623 |  |  |  |
| COc1ccc(Br)c(C(=O)NN2C(=O)CSC2c2ccccc2)c1 (configuration not stated) | 25 (≈ 61.4 µM) | 6.25 (≈ 15.3 µM) | 12.5 (≈ 30.7 µM) | 12.5 (≈ 30.7 µM) | 25 (≈ 61.4 µM) |  |  |  | 3.675 | 1.75 | 1.575 | 1.65 |  | 2.425 | 3.563 | 18.1 | 41.6 | 4.3% |
| COc1ccc(C2SCC(=O)N2NC(=O)c2cc(OC)ccc2Br)c(OC)c1 (configuration not stated) | 12.5 (≈ 26.7 µM) | 3.12 (≈ 6.69 µM) | 12.5 (≈ 26.7 µM) | 6.25 (≈ 13.4 µM) | 6.25 (≈ 13.4 µM) |  |  |  | 3.175 | 1.9 | 2.125 | 2.15 |  | 2.388 | 3.075 | 33.2 | 71 | 15.9% |
| COc1ccc(Br)c(C(=O)NN2C(=O)CSC2c2cccc(Cl)c2)c1 (configuration not stated) | 12.5 (≈ 28.3 µM) | 1.56 (≈ 3.54 µM) | 12.5 (≈ 28.3 µM) | 6.25 (≈ 14.1 µM) | 6.25 (≈ 14.1 µM) | 5 | Non-toxic | Non-toxic | 2.825 | 1.6 | 1.575 | 1.65 |  | 2.438 | 2.8 | 58.5 | 59.5 | 57.6% |
